From patent publication US11224609B2, “Mithramycin derivatives having increased selectivity and anti-cancer activity” (University of Kentucky Research Foundation, priority 2017, dated 2022)
Entries after “also recorded” stand apart in the source; their conditions may differ.

Key:
[1] = test system: CMV promoter; assay: CMV promoter luciferase reporter assay in stably transfected TC-32 cells (non-specific control); type: cell-based; conditions: 12 h, treated up to 10 μM
Source text: Full-length NR0B1 promoter sequence was PCR amplified using Q5 high-fidelity DNA polymerase (New England Biolabs, Ipswich, Mass.) from genomic DNA of TC-32 cells and cloned into the pGLUC-Basic 2 vector (New England Biolabs, Ipswich, Mass.). XhoI and KpnI restriction sites were incorporated into the primers. After restriction enzyme (New England Biolabs, Ipswich, Mass.) digest and purification by gel electrophoresis, the target amplicon was ligated into the pGLUC-Basic 2 vector using T4 DNA ligase (Thermo Fisher Scientific, Waltham, Mass.). Chemically competent TOP10 E. coli cells were used to propagate vectors under ampicillin selection (100 μg/mL) (Thermo Fisher Scientific, Waltham, Mass.). The resulting vectors were extracted and purified using GeneJET plasmid prep kit (Thermo Fisher Scientific, Waltham, Mass.). The purified vector was transfected into TC-32 cells using lipofectamine 3000 (Thermo Fisher Scientific, Waltham, Mass.) with subsequent G418 selection (1 mg/mL) (VWR, Radnor, Pa.). Separately, TC-32 cells were transfected with pCMV-Red Firefly Vector (Thermo Fisher Scientific, Waltham, Mass.) with subsequent puromycin selection (0.1 mg/mL) (Sigma, St. Louis, Mo.) as a control.
Selected TC-32 cells, expressing either NR0B1 or CMV luciferase reporter vectors, were seeded in clear 96-well plates at a density of 10,000 cells/well. […] After a 12 h treatment, media was removed and cells were washed 3 times with DPBS (Thermo Fisher Scientific, Waltham, Mass.). Cells were directly lysed on a plate shaker for 30 min at room temperature using 100 μL of passive membrane lysis solution. Lysates (80 μL) were transferred to a white luminescence plate. Luciferase substrate, either coelenterazine or D-luciferin (50 μL of 1× solution), for NR0B1 or CMV vectors, respectively, was added in a Glomax 96 microplate luminometer (Promega, Madison, Wis.) and luminescence was immediately measured. Delay before and after injections were set to the default of 0.4 s and a 10 s integration time was used. All reagents used in this assay were from the dual luciferase reporter assay system (Promega, Madison, Wis.). Concurrently, an additional 96 well plate was seeded and treated under the exact same conditions to determine cell viability using resazurin assay. Luminescence results were normalized to cell viability.

[2] = test system: A549 cells; assay: 72 h GI50 assay in A549; conditions: read-out: A549 GI50; 72 h growth inhibition
[3] = test system: 5838 Ewing sarcoma cells (EWS-ERG); assay: 72 h GI50 assay in 5838; conditions: for GI50: read-out: 5838 Ewing Sarcoma EWS-ERG GI50, 72 h growth inhibition, 5838 cells; for Ratio of median GI50 Non-Ewing sarcoma cell lines (cf Table 3):5838: selectivity for 5838 cells
[4] = test system: PANC-1 cells; assay: 72 h GI50 assay in PANC-1; conditions: read-out: PANC-1 GI50; 72 h growth inhibition
[5] = test system: Ewing sarcoma cell lines (TC-32, 5838, RD-ES, TC-71, A-673, ES-2, ES-7, ES-8); assay: Median GI50 in panel of Ewing sarcoma cell lines; conditions: for Ratio of Median GI50 non-Ewing sarcoma:Ewing sarcoma (Selectivity Index): median GI50 non-Ewing panel over Ewing panel; for GI50: read-out: Median GI50 in Ewing sarcoma cell lines, median over 8 Ewing sarcoma cell lines, 72 h; for Selectivity Index ratio Analogues:MTM (1): selectivity index relative to MTM (1)
[6] = test system: EWS-FLI1 mRNA; assay: Relative mRNA expression (qRT-PCR) of EWS-FLI1 in TC-32 cells; type: cell-based; conditions: 6 and 12 h treatments at GI50
Experimental: (§1) TC-32 cells were seeded in 6-well plates at a density of 300,000 cells/well. […] After 6 and 12 h treatments media was removed. Cells were washed with DPBS and 500 μL of 0.05% Trypsin with 0.53 mM EDTA (Corning, Corning, N.Y.) was added. After a 2-3 min incubation, cells detached from the plate and 1 mL of fresh RPMI media was immediately added. Cells were collected in 1.5 mL tubes on ice and centrifuged to a pellet at 1200× g for 5 min. Supernatant was removed and cell pellets were lysed with 600 μL of RLT lysis buffer (Qiagen, Hilden, Germany). Lysates were centrifuged through QIAshredder inserts for complete cell disruption (Qiagen, Hilden, Germany). RNeasy mini spin columns were used to isolate pure RNA (Qiagen, Hilden, Germany). RNA concentrations were measured using NanoDrop 2000 Spectrometer (Thermo Fisher Scientific, Waltham, Mass.) and a 100 ng/μL stock solution was prepared. RNA (1 μg) was used to prepare cDNA with a MultiScribe reverse transcriptase (Thermo Fisher Scientific, Waltham, Mass.). qRT-PCR reactions were conducted using Maxima SYBR green Taq DNA Polymerase (Thermo Fisher Scientific, Waltham, Mass.). EpMotion5070 (Eppendorf, Hamburg, Germany) robot was used to mix reactions in 384 well plates and thermocycling was completed on a QuantStudio 7 Flex (Thermo Fisher Scientific, Waltham, Mass.). […]

[7] = test system: A-673 Ewing sarcoma cells (EWS-FLI1 Type 1); assay: 72 h GI50 assay in A-673; conditions: read-out: A-673 EWS-FLI1 Type 1 GI50; 72 h growth inhibition
[8] = test system: DU 145 cells; assay: 72 h GI50 assay in DU 145; conditions: read-out: DU 145 GI50; 72 h growth inhibition
[9] = test system: ES-8 Ewing sarcoma cells (EWS-FLI1 Type 2); assay: 72 h GI50 assay in ES-8; conditions: read-out: ES-8 EWS-FLI1 Type 2 GI50; 72 h growth inhibition
[10] = test system: NR0B1 mRNA; assay: Relative mRNA expression (qRT-PCR) of NR0B1 in TC-32 cells; type: cell-based; conditions: 6 and 12 h treatments at GI50
Experimental: as §1

[11] = test system: TC-32 (Ewing sarcoma, EWS-FLI1 Type 1) cell line; conditions: for TC-32 Ewing sarcoma EWS-FLI1 Type 1 GI50: 72 h growth inhibition, TC-32 cells; for GI50 ratio PC-3:TC-32: selectivity, GI50 in PC-3 over GI50 in TC-32
[12] = test system: ES-7 Ewing sarcoma cells (EWS-FLI1 Type 4); assay: 72 h GI50 assay in ES-7; conditions: read-out: ES-7 EWS-FLI1 Type 4 GI50; 72 h growth inhibition
[13] = test system: VCaP prostate cancer cells (TMPRSS2-ERG); assay: 72 h GI50 assay in VCaP; conditions: for GI50: read-out: VCaP Prostate Cancer TMPRSS2-ERG GI50, 72 h growth inhibition, VCaP cells; for Ratio of median GI50 Prostate cells lacking TMPRSS2-ERG:VCaP: selectivity for VCaP over other prostate cancer cell lines
[14] = test system: HeLa cells; assay: 72 h GI50 assay in HeLa; conditions: read-out: HeLa GI50; 72 h growth inhibition

Row | SMILES | CMV promoter driven luciferase signal [1] | GI50 [2] [nM] | GI50 [3] [nM] | Ratio of median GI50 Non-Ewing sarcoma cell lines (cf Table 3):5838 [3] | GI50 [4] [nM] | Ratio of Median GI50 non-Ewing sarcoma:Ewing sarcoma (Selectivity Index) [5] | GI50 [5] [nM] | Selectivity Index ratio Analogues:MTM (1) [5] | EWS-FLI1 mRNA expression [6] | GI50 [7] [nM] | GI50 [8] [nM] | GI50 [9] [nM] | NR0B1 mRNA expression [10] | TC-32 Ewing sarcoma EWS-FLI1 Type 1 GI50 [11] [nM] | GI50 ratio PC-3:TC-32 [11] | GI50 [12] [nM] | GI50 [13] [nM] | Ratio of median GI50 Prostate cells lacking TMPRSS2-ERG:VCaP [13] | GI50 [14] [nM] | further results
1 | COC(=O)C(Cc1c[nH]c2ccccc12)NC(=O)C(Cc1c[nH]c2ccccc12)NC(=O)C(OC)C1Cc2cc3cc(OC4CC(OC5CC(O)C(O)C(C)O5)C(O)C(C)O4)c(C)c(O)c3c(O)c2C(=O)C1OC1CC(OC2CC(OC3CC(C)(O)C(O)C(C)O3)C(O)C(C)O2)C(O)C(C)O1 (stereo not shown) [Analogue 61, MTMSA-Trp-Trp] | no effect at all; also recorded: did not decrease | 1400 | 53 | 16.2 | 640 | 15.6 | 55 | 10.4 | decreased | 364 | 246 | 114 | decreased | 41 | 13.9 | 48 | 31 | 18.3 | 951 | CMV promoter driven luciferase signal ([1]; listed as MTMSA-Trp-Trp (61)): Lack of effect
2 | COC(=O)C(Cc1c[nH]c2ccccc12)NC(=O)C(Cc1ccccc1)NC(=O)C(OC)C1Cc2cc3cc(OC4CC(OC5CC(O)C(O)C(C)O5)C(O)C(C)O4)c(C)c(O)c3c(O)c2C(=O)C1OC1CC(OC2CC(OC3CC(C)(O)C(O)C(C)O3)C(O)C(C)O2)C(O)C(C)O1 (stereo not shown) [Analogue 60, MTMSA-Phe-Trp] | no effect at all; also recorded: did not decrease | 2850 | 149 | 6.7 | 574 | 19.1 | 52 | 12.7 | decreased | 168 | 400 | 53 | decreased | 47 | 24.0 | 46 | 39 | 25.4 | 557 | CMV promoter driven luciferase signal ([1]; listed as MTMSA-Phe-Trp (60)): Lack of effect
